Test results taken from patent publication US20030143733A1, “Tetrapeptide” (La Jolla Cancer Research Foundation, priority 1985, published 2003).

Legend:
[1] = tested on: attachment of cells to a fibronectin-coated substrate; test: Inhibition of cell attachment to fibronectin-coated substrate by solubilized peptide; type: cell-based; details: peptide in solubilized form combined with free cells
Experimental: Those peptides having a COOH-terminal cystine residue were assayed for their activity in promoting cell attachment by first attaching them via the heterobifunctional crosslinker SPDP (N-succinimidyl 3-(2-pyridyldithio) propionate, Sigma, St. Louis, Mo.) to rabbit IgG which was immobilized on plastic. The attachment assay was then carried out as described by Ruoslahti, E. et al., Methods Enzymology 82:803-831 (1981) using freshly trypsinized normal rat kidney cells (NRK). After a one hour incubation, those cells which had attached were fixed, stained and quantitated using either an Artek cell counter or a multiscan spectrophotometer. […] The relative activity of each peptide is indicated by the concentration of the peptides in nmoles/ml necessary to achieve half-maximal activity, or, where accurate quantitation was not possible, by the crosses at the right of FIG. 1, and by the graph in FIG. 2.
If the mechanism of cell attachment involves the recognition of the amino acid sequence of the tetrapeptide by a receptor on the cell, then it could be postulated that attachment could be inhibited by preventing this recognition by “blocking” the receptor. […] In separate experiments, various concentrations of the tetrapeptide (Arg-Gly-Asp-Ser) and a hexapeptide, Pro-Arg-Gly-Asp-Ser-Gly in a solubilized form were combined with the free cells, and attachment activity measured as above.

[2] = tested on: normal rat kidney cells (NRK); test: Cell attachment promoting activity assay (peptide coupled via SPDP to rabbit IgG immobilized on plastic); type: cell-based; details: freshly trypsinized NRK cells, one hour incubation
Experimental: Those peptides having a COOH-terminal cystine residue were assayed for their activity in promoting cell attachment by first attaching them via the heterobifunctional crosslinker SPDP (N-succinimidyl 3-(2-pyridyldithio) propionate, Sigma, St. Louis, Mo.) to rabbit IgG which was immobilized on plastic. The attachment assay was then carried out as described by Ruoslahti, E. et al., Methods Enzymology 82:803-831 (1981) using freshly trypsinized normal rat kidney cells (NRK). After a one hour incubation, those cells which had attached were fixed, stained and quantitated using either an Artek cell counter or a multiscan spectrophotometer. In all cases, maximum attachment was about 80-90% of the cells plated. The relative activity of each peptide is indicated by the concentration of the peptides in nmoles/ml necessary to achieve half-maximal activity, or, where accurate quantitation was not possible, by the crosses at the right of FIG. 1, and by the graph in FIG. 2.

| Substance | inhibition of normal attachment of cells to a fibronectin-coated substrate [1] | cell attachment promoting activity [2] |
| --- | --- | --- |
| H-Arg-Gly-Asp-Ser-OH (RGDS; printed: Arg-Gly-Asp-Ser) | inhibit the normal attachment of cells | had the property of causing cell attachment |
| PRGDSG [Pro-Arg-Gly-Asp-Ser-Gly] | inhibit the normal attachment of cells |  |
| RVDSPAC [peptide with substitution of the glycine with the bulky valine residue] |  | abolished the activity |
